Source: the supplement of paper PMC8149375

Key:
Details in all cases: treatment: drug + dasatinib (fixed dose, not stated); 5 days
769-P [1] = test: GI50 of drug in presence of dasatinib; higher = less potent
Method: (§1)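 Primary HTS combination arm: 8 RCC cell lines treated with 8 doses (up to 10 uM) of each library drug plus a fixed dose of dasatinib (dose not stated) for 5 days; viability read by CellTiter-Glo and normalised to DMSO. GI50 was fitted with XLfit, AUC is the area under the dose-response curve, and minimum viability is the lowest fraction of DMSO viability across doses.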

786-O [2] = test: as above
Method: as §1

A498 [3] = test: as above
Method: as §1

ACHN [4] = test: as above
Method: as §1

CAKI-1 [5] = test: as above
Method: as §1

SN12C [6] = test: as above
Method: as §1

TK-10 [7] = test: as above
Method: as §1

UO-31 [8] = test: as above
Method: as §1

769-P [9] = test: minimum viability across doses, drug + dasatinib, relative to DMSO (fraction); higher = less growth inhibition
Method: as §1

786-O [10] = test: as above
Method: as §1

A498 [11] = test: as above
Method: as §1

ACHN [12] = test: as above
Method: as §1

CAKI-1 [13] = test: as above
Method: as §1

SN12C [14] = test: as above
Method: as §1

TK-10 [15] = test: as above
Method: as §1

UO-31 [16] = test: as above
Method: as §1

769-P [17] = test: AUC of dose-response viability curve, drug + dasatinib, normalised to DMSO (arbitrary (AUC of normalised viability)); higher = less growth inhibition
Method: as §1

786-O [18] = test: as above
Method: as §1

A498 [19] = test: as above
Method: as §1

ACHN [20] = test: as above
Method: as §1

CAKI-1 [21] = test: as above
Method: as §1

SN12C [22] = test: as above
Method: as §1

TK-10 [23] = test: as above
Method: as §1

UO-31 [24] = test: as above
Method: as §1

SMILES	GI50 of drug (769-P [1])	GI50 of drug (786-O [2])	GI50 of drug (A498 [3])	GI50 of drug (ACHN [4])	GI50 of drug (CAKI-1 [5])	GI50 of drug (SN12C [6])	GI50 of drug (TK-10 [7])	GI50 of drug (UO-31 [8])	minimum viability across doses (769-P [9])	minimum viability across doses (786-O [10])	minimum viability across doses (A498 [11])	minimum viability across doses (ACHN [12])	minimum viability across doses (CAKI-1 [13])	minimum viability across doses (SN12C [14])	minimum viability across doses (TK-10 [15])	minimum viability across doses (UO-31 [16])	AUC of dose-response viability curve (769-P [17])	AUC of dose-response viability curve (786-O [18])	AUC of dose-response viability curve (A498 [19])	AUC of dose-response viability curve (ACHN [20])	AUC of dose-response viability curve (CAKI-1 [21])	AUC of dose-response viability curve (SN12C [22])	AUC of dose-response viability curve (TK-10 [23])	AUC of dose-response viability curve (UO-31 [24])
COc1cccc2cc(-c3nc([C@H]4CC[C@H](C(=O)O)CC4)n4ncnc(N)c34)[nH]c12 [OSI-027] + Cc1nc(Nc2ncc(C(=O)Nc3c(C)cccc3Cl)s2)cc(N2CCN(CCO)CC2)n1 [dasatinib]	2380 nM	252 nM	4020 nM	322 nM	341 nM	1110 nM	1100 nM	2240 nM	0.227	0.0675	0.139	0.0877	0.0226	0.15	0.152	0.00633	2.25	1.84	3.08	1.67	1.65	2.05	2.23	2.91
C#Cc1cccc(Nc2ncnc3cc(OCCOC)c(OCCO)cc23)c1.Cl [OSI-420 (Desmethyl Erlotinib)] + Cc1nc(Nc2ncc(C(=O)Nc3c(C)cccc3Cl)s2)cc(N2CCN(CCO)CC2)n1 [dasatinib]	510 nM	< 3 nM	> 10000 nM	23.1 nM	1070 nM	> 10000 nM	2320 nM	8630 nM	0.226	0.403	0.761	0.0775	0.11	0.442	0.379	0.325	1.96	2.22	3.08	1.35	1.93	2.36	2.18	3.77
O=C(Nc1ccc(OC(F)(F)F)cc1)c1sccc1NCc1ccnc2ccccc12 [OSI-930] + Cc1nc(Nc2ncc(C(=O)Nc3c(C)cccc3Cl)s2)cc(N2CCN(CCO)CC2)n1 [dasatinib]	3090 nM	4480 nM	> 10000 nM	2350 nM	3170 nM	6210 nM	6520 nM	4590 nM	0.24	0.32	0.685	0.129	0.136	0.174	0.395	0.0216	2.23	2.41	3.69	2.07	2.23	2.57	2.71	3.25
COC1=CC(c2cc3ccccc3[nH]2)=N/C1=C\c1[nH]c(C)cc1C.CS(=O)(=O)O [Obatoclax mesylate (GX15-070)] + Cc1nc(Nc2ncc(C(=O)Nc3c(C)cccc3Cl)s2)cc(N2CCN(CCO)CC2)n1 [dasatinib]	145 nM	31.6 nM	277 nM	15.4 nM	122 nM	153 nM	86.6 nM	305 nM	0.0261	0.00545	0.0102	0.014	0.00534	0.00176	0.151	0.00726	1.46	0.949	1.76	0.992	1.4	1.38	1.58	2.23
C=CCc1cccc(/C=N/NC(=O)CN2CCN(Cc3ccccc3)CC2)c1O [PAC-1] + Cc1nc(Nc2ncc(C(=O)Nc3c(C)cccc3Cl)s2)cc(N2CCN(CCO)CC2)n1 [dasatinib]	1420 nM	427 nM	4840 nM	174 nM	1350 nM	3460 nM	764 nM	2010 nM	0.0266	0.0103	0.169	0.0168	0.0701	0.0519	0.0728	0.0141	2.17	1.73	3.38	1.49	2.07	2.41	2.04	3.14
CCCCCCCCCCCCc1ccc(S(=O)(=O)Nc2nncs2)cc1 [PHT-427] + Cc1nc(Nc2ncc(C(=O)Nc3c(C)cccc3Cl)s2)cc(N2CCN(CCO)CC2)n1 [dasatinib]	> 10000 nM	4870 nM	> 10000 nM	> 10000 nM	> 10000 nM	> 10000 nM	> 10000 nM	> 10000 nM	0.631	0.455	0.912	0.47	0.656	0.691	0.67	1.13	2.43	1.91	3.58	1.87	2.43	2.53	2.53	4.28
Oc1cccc(-c2nc(N3CCOCC3)c3oc4ncccc4c3n2)c1 [PI-103] + Cc1nc(Nc2ncc(C(=O)Nc3c(C)cccc3Cl)s2)cc(N2CCN(CCO)CC2)n1 [dasatinib]	461 nM	73.1 nM	386 nM	31.4 nM	322 nM	156 nM	389 nM	115 nM	0.0372	0.0069	0.111	0.0522	0.0121	0.116	0.0871	0.00638	1.84	1.43	2.06	1.2	1.63	1.57	1.86	1.49
Cc1ccc([N+](=O)[O-])cc1S(=O)(=O)N(C)/N=C/c1cnc2ccc(Br)cn12.Cl [PIK-75] + Cc1nc(Nc2ncc(C(=O)Nc3c(C)cccc3Cl)s2)cc(N2CCN(CCO)CC2)n1 [dasatinib]	47.6 nM	30.3 nM	65.6 nM	7.83 nM	7.8 nM	57.7 nM	45.1 nM	43 nM	0.00622	0.00381	0.00818	0.00364	0.0337	0.00539	0.124	0.00696	1.11	0.918	1.29	0.571	0.683	1.07	1.4	1.22
CC(=O)Nc1nc(C)c(-c2ccc(Cl)c(S(=O)(=O)NCCO)c2)s1 [PIK-93] + Cc1nc(Nc2ncc(C(=O)Nc3c(C)cccc3Cl)s2)cc(N2CCN(CCO)CC2)n1 [dasatinib]	4000 nM	135 nM	8110 nM	976 nM	1170 nM	1890 nM	3690 nM	4320 nM	0.352	0.127	0.476	0.188	0.068	0.259	0.251	0.0793	2.31	1.49	3.29	1.75	2.05	2.14	2.31	3.76
Cc1ccccc1-n1c(Cn2ncc3c(N)ncnc32)nc2cccc(C)c2c1=O [PIK-293] + Cc1nc(Nc2ncc(C(=O)Nc3c(C)cccc3Cl)s2)cc(N2CCN(CCO)CC2)n1 [dasatinib]	> 10000 nM	> 10000 nM	> 10000 nM	2540 nM	> 10000 nM	> 10000 nM	> 10000 nM	> 10000 nM	0.685	0.6	0.782	0.539	0.655	0.666	0.66	1.15	2.55	2.24	3.17	2.17	2.38	2.43	2.47	4.4
CCn1nnc2c(N3CCOCC3)nc(-c3ccc(NC(=O)Nc4ccc(C(=O)N5CCN(C)CC5)cc4)cc3)nc21 [PKI-402] + Cc1nc(Nc2ncc(C(=O)Nc3c(C)cccc3Cl)s2)cc(N2CCN(CCO)CC2)n1 [dasatinib]	450 nM	98 nM	87.5 nM	82.8 nM	122 nM	41.6 nM	117 nM	350 nM	0.0547	0.00332	0.148	0.0465	0.0314	0.0929	0.0238	0.00734	1.86	1.41	1.66	1.25	1.48	1.19	1.55	2.39
CCCS(=O)(=O)Nc1ccc(F)c(C(=O)c2c[nH]c3ncc(Cl)cc23)c1F [PLX-4720] + Cc1nc(Nc2ncc(C(=O)Nc3c(C)cccc3Cl)s2)cc(N2CCN(CCO)CC2)n1 [dasatinib]	> 10000 nM	2740 nM	> 10000 nM	1070 nM	1700 nM	> 10000 nM	5470 nM	> 10000 nM	0.641	0.212	0.765	0.127	0.0731	0.679	0.361	0.806	2.48	2.13	3	1.93	2.08	2.47	2.44	3.22
CC(C)n1nc(-c2cc3cc(O)ccc3[nH]2)c2c(N)ncnc21 [PP242] + Cc1nc(Nc2ncc(C(=O)Nc3c(C)cccc3Cl)s2)cc(N2CCN(CCO)CC2)n1 [dasatinib]	401 nM	713 nM	1350 nM	24.5 nM	158 nM	357 nM	253 nM	1140 nM	0.0492	0.00231	0.152	0.0314	0.0342	0.0689	0.0716	0.00386	1.86	1.74	2.41	1.19	1.51	1.74	1.86	2.82
Nc1ncnc2c1c(-c1cnc3[nH]ccc3c1)nn2C1CCCC1 [PP-121] + Cc1nc(Nc2ncc(C(=O)Nc3c(C)cccc3Cl)s2)cc(N2CCN(CCO)CC2)n1 [dasatinib]	415 nM	73.8 nM	1270 nM	132 nM	126 nM	337 nM	261 nM	896 nM	0.0299	0.00453	0.0684	0.0126	0.00718	0.0517	0.0102	0.00907	1.74	1.44	2.5	1.41	1.41	1.73	1.67	2.71
